According to the Deep4Chem optical property database:

Experiment: solvent given as SMILES
[1] = in c1cc(-c2cccc(-n3c4ccccc4c4ccccc43)c2)cc(-n2c3ccccc3c3ccccc32)c1

SMILES: COc1ccc(C2=C3C=CC(C)=[N+]3[B-](F)(F)n3c(C)ccc32)cc1
- emission maximum (in C1CCCCC1): 521 nm
- emission maximum (in C1CCOC1): 521 nm
- emission maximum (in CC#N): 517 nm
- emission maximum (in CCOC(C)=O): 518 nm
- emission maximum (in CO): 518 nm
- emission maximum (in Cc1ccccc1): 524 nm
- emission maximum (in ClC(Cl)Cl): 523 nm

SMILES: O=C1c2ccccc2-c2ccc(N3CCOCC3)c3cccc1c23
- emission maximum (in C1CCOC1): 600 nm
- emission maximum (in CCCCCC): 529 nm
- emission maximum (in CCO): 640 nm
- emission maximum (in CCOC(C)=O): 600 nm
- emission maximum (in CN(C)C=O): 622 nm
- emission maximum (in CO): 661 nm
- emission maximum (in Cc1ccccc1): 568 nm
- emission maximum (in ClC(Cl)(Cl)Cl): 552 nm
- emission maximum (in ClC(Cl)Cl): 625 nm
- emission maximum (in ClCCl): 625 nm
- emission maximum (in c1ccccc1): 562 nm

SMILES: CCCCCCC(CCCCCC)N1C(=O)c2cccc3c(-c4cc(OC)c(OC)c(OC)c4)ccc(c23)C1=O
- emission maximum (in CCCCCC): 440.2 nm
- emission maximum (in CCCCCCCCCCCCCC): 442.3 nm
- emission maximum (in CCCCCCCCCCCO): 526.4 nm
- emission maximum (in CCCCO): 572 nm
- emission maximum (in CN(C)C=O): 618.8 nm
- emission maximum (in Cc1ccccc1): 492.4 nm
- emission maximum (in ClC(Cl)Cl): 525.1 nm

SMILES: N#Cc1c(-n2c3ccccc3c3ccccc32)c(F)c(-n2c3ccccc3c3ccccc32)c(-n2c3ccccc3c3ccccc32)c1-n1c2ccccc2c2ccccc21
- emission maximum (in Cc1ccccc1): 453 nm
- emission maximum (in c1ccc([Si](c2ccccc2)(c2ccc(-n3c4ccccc4c4ccccc43)cc2)c2ccc(-n3c4ccccc4c4ccccc43)cc2)cc1): 470 nm

SMILES: CN1/C(=C\C=C\C2=C3C=CC(c4ccccc4)=[N+]3[B-](F)(F)n3c2ccc3-c2ccccc2)Sc2ccccc21
- emission maximum (in CC#N): 727 nm

SMILES: N#Cc1c(-n2c3ccccc3c3ccccc32)nc(-n2c3ccccc3c3ccccc32)c(C#N)c1-c1ccccc1
- emission maximum [1]: 475 nm

SMILES: CCN(CC)c1ccc(-c2nc3c(nc2-c2ccc(B(c4c(C)cc(C)cc4C)c4c(C)cc(C)cc4C)cc2)c2ccccc2n3C)cc1
- emission maximum (in C1CCCCC1): 462 nm
- emission maximum (in C1CCOC1): 528 nm
- emission maximum (in CC(C)=O): 544 nm
- emission maximum (in CS(C)=O): 567 nm
- emission maximum (in Cc1ccccc1): 493 nm

SMILES: c1ccc(-c2ccnc(-c3ccccc3)n2)cc1
- emission maximum (in ClC(Cl)Cl): 311 nm

SMILES: CCCCCCCCC1(CCCCCCCC)c2cc3c(cc2-c2sc(-c4ccc(/C=C5\SC(SCC)=NC5=O)c5nsnc45)cc21)C(CCCCCCCC)(CCCCCCCC)c1cc(-c2ccc(/C=C4\SC(SCC)=NC4=O)c4nsnc24)sc1-3
- emission maximum (in ClC(Cl)Cl): 718 nm

SMILES: N#Cc1cnc(-c2c3ccccc3cc3ccccc23)nc1
- emission maximum (in CCO): 510 nm
- emission maximum (in ClCCl): 492 nm

SMILES: O=S(=O)([O-])c1ccc2c([O-])cc(S(=O)(=O)[O-])cc2c1
- emission maximum (in O): 485 nm

SMILES: CC(C)Nc1cc2sc3cc(NC(C)C)c(F)cc3c(=O)c2cc1F
- emission maximum (in CCO): 446 nm

SMILES: CCC1(CC)c2ccccc2-c2ccc(C#Cc3cc(C#Cc4ccc5c(c4)C(CC)(CC)c4ccccc4-5)c4ccc5c(C#Cc6ccc7c(c6)C(CC)(CC)c6ccccc6-7)cc(C#Cc6ccc7c(c6)C(CC)(CC)c6ccccc6-7)c6ccc3c4c65)cc21
- emission maximum (in Cc1ccccc1): 549 nm

SMILES: c1cc2c3c4c5c(cccc5cc3c1)-c1cccn1B4n1cccc1-2
- emission maximum (in C1CCOC1): 601 nm

SMILES: c1ccc(-c2ccc(-c3ccc(N(c4ccccc4)c4ccccc4)cc3)c3nsnc23)cc1
- emission maximum (in C1CCOC1): 578 nm
- emission maximum (in CC(C)=O): 619 nm
- emission maximum (in CCCCCC): 526 nm
- emission maximum (in CCOCC): 558 nm

SMILES: C[P+]1(c2ccccc2)C2=C(c3ccccc31)S(=O)(=O)c1ccccc12 (stereo unspecified)
- emission maximum (in CC#N): 479 nm
- emission maximum (in CCO): 419 nm
- emission maximum (in ClCCl): 483 nm

SMILES: O=C1NC(=O)c2c1c1c3ccccc3[nH]c1c1[nH]c3ccccc3c21
- emission maximum (in C1CCOC1): 475 nm
- emission maximum (in CC#N): 500 nm
- emission maximum (in CC(C)OC(C)C): 450 nm
- emission maximum (in CCCCOCCCC): 461 nm
- emission maximum (in CCO): 550 nm
- emission maximum (in CCOC(C)=O): 473 nm
- emission maximum (in CN(C)C=O): 503 nm
- emission maximum (in Cc1ccccc1): 465 nm
- emission maximum (in ClCCl): 492 nm

SMILES: CN(C)/C=N\c1ccc2c3c(cccc13)C(=O)c1ccccc1-2
- emission maximum (in C1CCOC1): 586 nm
- emission maximum (in CCCCCC): 528 nm
- emission maximum (in CCO): 634 nm
- emission maximum (in CCOC(C)=O): 586 nm
- emission maximum (in CN(C)C=O): 624 nm
- emission maximum (in CO): 638 nm
- emission maximum (in Cc1ccccc1): 551 nm
- emission maximum (in ClC(Cl)(Cl)Cl): 540 nm
- emission maximum (in ClC(Cl)Cl): 575 nm
- emission maximum (in ClCCl): 593 nm
- emission maximum (in c1ccccc1): 550 nm

SMILES: CC(C)(C)c1cc(-c2c3cccc4c5cccc6c(-c7cc(C(C)(C)C)cc(C(C)(C)C)c7)c7cccc8c9cccc2c9c(c34)c(c65)c78)cc(C(C)(C)C)c1
- emission maximum (in Cc1ccccc1): 701 nm

SMILES: N#Cc1cc(-n2c3ccccc3c3ccccc32)c(C#N)cc1-n1c2ccccc2c2ccccc21
- emission maximum [1]: 370 nm
- emission maximum (in c1ccc2c(c1)c1ccccc1n2P1(n2c3ccccc3c3ccccc32)=NP(n2c3ccccc3c3ccccc32)(n2c3ccccc3c3ccccc32)=NP(n2c3ccccc3c3ccccc32)(n2c3ccccc3c3ccccc32)=N1): 370 nm

SMILES: N=c1oc2ccccc2cc1-c1ccc([N+](=O)[O-])cc1
- emission maximum (in C1CCOC1): 442 nm
- emission maximum (in CC#N): 550 nm
- emission maximum (in CS(C)=O): 589 nm
- emission maximum (in ClC(Cl)Cl): 436 nm

SMILES: C[N+]1=c2cc3c(cc2C(C)(C)CC1)=C(c1ccccc1C(=O)O)c1cc2c(cc1O3)Oc1cc3c(cc1=C2c1ccccc1C(=O)O)C(C)(C)CC[N+]=3C
- emission maximum (in ClC(Cl)Cl): 612 nm

SMILES: c1ccc(-c2cc(-c3ccc4ccc5cccc6ccc3c4c56)ccn2)nc1
- emission maximum (in C1CCOC1): 394 nm
- emission maximum (in CC#N): 410 nm
- emission maximum (in CCC#N): 408 nm
- emission maximum (in CCCC#N): 408 nm
- emission maximum (in CCCCCC): 385 nm
- emission maximum (in CCCO): 429 nm
- emission maximum (in CCO): 431 nm
- emission maximum (in CO): 438 nm
- emission maximum (in Cc1ccccc1): 393 nm

SMILES: CC1=N/C(=C\c2ccc(C#N)c(N(C)C)c2)C(=O)N1C
- emission maximum (in C1CCOC1): 568 nm
- emission maximum (in CC#N): 592 nm
- emission maximum (in CCCCCC): 496 nm

SMILES: c1ccc(-c2nc(-c3ccc(-n4c5ccc(-n6c7ccccc7c7ccccc76)cc5c5ccc6c(c7ccccc7n6-c6ccccc6)c54)cc3)c3sc4ccccc4c3n2)cc1
- emission maximum (in Cc1ccccc1): 460.56 nm

SMILES: CCc1c(C(=O)OC)c(C(=O)OC)c2ccc(-c3ccccc3)nn12
- emission maximum (in CCCCCC): 471 nm

SMILES: COc1ccc2c(c1)C(=O)c1cc(OC)cc(OC)c1-2
- emission maximum (in C1CCCCC1): 570 nm
- emission maximum (in CC#N): 628 nm

SMILES: COc1cc(OC)cc(C2=C3C(C)=C(I)C(/C=C/c4c[nH]c5ccccc45)=[N+]3[B-](F)(F)n3c(/C=C/c4c[nH]c5ccccc45)c(I)c(C)c32)c1
- emission maximum (in C1CCOC1): 748 nm
- emission maximum (in CS(C)=O): 771 nm
- emission maximum (in ClCCl): 735 nm

SMILES: CCC1=C(C)C2=Cc3cccn3[B-](F)(F)[N+]2=C1C
- emission maximum (in C1CCCCC1): 517.5 nm
- emission maximum (in CC(C)=O): 516 nm
- emission maximum (in CCO): 517 nm
- emission maximum (in CCOC(C)=O): 516.5 nm
- emission maximum (in CO): 516.5 nm
- emission maximum (in OCC(F)(F)F): 515.5 nm

SMILES: COc1ccc(O)cc1C=O
- emission maximum (in CO): 489 nm
- emission maximum (in ClC(Cl)Cl): 433 nm

SMILES: C[Si](C)(c1ccc(-c2nc3ccccc3n2-c2ccccc2)cc1)c1ccc(-c2nc3ccccc3n2-c2ccccc2)cc1
- emission maximum (in ClCCl): 359 nm

SMILES: Cc1cccc(-c2c3ccccc3c(-c3cccc(C)n3)c3ccccc23)n1
- emission maximum (in ClCCl): 428 nm

SMILES: CC(C)(C)Nc1cc2sc3cc(NC(C)(C)C)c(F)cc3c(=O)c2cc1F
- emission maximum (in CCO): 432 nm

SMILES: CC(C)(C)c1ccc2c(c1)c1cc(C(C)(C)C)ccc1n2-c1ccc(-c2nc(-c3ccccc3)nc(-c3ccccc3)n2)c2c1c1ccccc1n2-c1ccccc1
- emission maximum (in C1CCOC1): 450 nm
- emission maximum (in Cc1ccccc1): 417 nm
- emission maximum (in ClCCl): 474.77 nm

SMILES: C[Si](C)(C)C#Cc1cccc2ccccc12
- emission maximum (in C1CCCCC1): 336 nm
